Laboratory results from paper PMC4526890, “Crystal structures of Mycobacterium tuberculosis GlgE and complexes with non-covalent inhibitors” (Scientific Reports, 2015).

Molecular target: T1, Mtb GlgE (Mycobacterium tuberculosis, UniProt P9WQ17)
T1 construct: full-length wild type, N-terminal His tag (modified pET-28), E. coli T7 Rosetta; homodimer, intermolecular C29 disulfide in crystal
Assay: X-ray crystal structure, […] Å, crystal soak
Type: binding
Settings: 10 mM ligand, 1 h soak of maltose co-crystal; acceptor glucan site about 26 Å from M1P site; ternary complex with maltose

T1 sequence (P9WQ17 1-700): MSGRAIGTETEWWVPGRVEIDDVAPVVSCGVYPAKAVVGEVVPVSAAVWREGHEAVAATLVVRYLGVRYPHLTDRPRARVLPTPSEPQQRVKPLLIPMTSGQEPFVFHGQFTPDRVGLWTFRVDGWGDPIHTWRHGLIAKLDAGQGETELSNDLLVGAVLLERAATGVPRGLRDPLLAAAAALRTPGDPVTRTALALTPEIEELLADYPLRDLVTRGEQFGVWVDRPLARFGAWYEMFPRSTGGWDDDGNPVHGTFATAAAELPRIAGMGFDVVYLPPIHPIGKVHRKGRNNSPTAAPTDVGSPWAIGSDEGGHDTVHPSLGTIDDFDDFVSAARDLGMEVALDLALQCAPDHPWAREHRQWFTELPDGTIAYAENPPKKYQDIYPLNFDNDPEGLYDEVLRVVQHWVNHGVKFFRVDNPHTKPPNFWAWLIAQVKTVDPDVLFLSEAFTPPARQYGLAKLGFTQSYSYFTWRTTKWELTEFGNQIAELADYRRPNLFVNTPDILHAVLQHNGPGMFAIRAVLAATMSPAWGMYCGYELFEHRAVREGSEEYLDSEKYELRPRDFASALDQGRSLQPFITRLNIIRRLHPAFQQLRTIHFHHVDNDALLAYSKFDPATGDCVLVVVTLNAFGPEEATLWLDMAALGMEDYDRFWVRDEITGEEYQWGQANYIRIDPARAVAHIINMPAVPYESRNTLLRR

OC[C@H]1O[C@H](O[C@H]2[C@H](O)[C@@H](O)[C@@H](O[C@H]3[C@H](O)[C@@H](O)[C@@H](O[C@H]4[C@H](O)[C@@H](O)[C@@H](O[C@H]5[C@H](O)[C@@H](O)[C@@H](O[C@H]6[C@H](O)[C@@H](O)C(O)O[C@@H]6CO)O[C@@H]5CO)O[C@@H]4CO)O[C@@H]3CO)O[C@@H]2CO)[C@H](O)[C@@H](O)[C@@H]1O (stereo partly shown) [M6, maltohexaose]
X-ray crystal structure, 4.0 Å, crystal soak: ternary complex with Mtb GlgE bound to maltose and maltohexaose (GlgE-M6) was solved
